Data published in a melting point compilation (Tetko et al.; mined from patent text by program, amines drawn as free bases though some values may be those of a salt).

| SMILES | melting point [°C] |
| --- | --- |
| O=C1N[C@H](C(=O)NCCO)CS1 | 116 to 118 |
| COc1ccc2c(c1)[nH]c1cc(OC)ccc12 | 273 to 274 |
| NS(=O)(=O)c1ccc(NN=C2C(=O)Nc3ccc(C(=O)NCCCn4ccnc4)cc32)cc1 | > 230 |
| CCOC(=O)C1CCc2c(sc3nc(CCl)c(Cl)c(-c4ccc(OC)cc4)c23)C1 (stereo not drawn) | 113 to 114 |
| COc1cc2ncnc(N3CCC(O)(CCN4C=CC(C)=NS4(=O)=O)CC3)c2cc1OC | 203 to 204 |
| CCc1cc(OCc2ccccc2)ccc1C(=O)NNC(=O)Cc1cccc(O)c1 | 190 to 191 |
| CCCc1c(OCCCCCOc2ccc(C(=O)c3ccccc3CC(=O)O)cc2CCC(=O)O)ccc2c1OCCC2=O | 105 to 108 |
| CCCCc1nc(C(F)(F)CCC)nn1Cc1ccc(-c2ccccc2-c2nnn[nH]2)cc1 | 165 to 168 |
| CC(C)=C(c1ccc(C(=O)O)cc1)c1ccc2c(c1)C(C)(C)CCC2(C)C | 204 to 206 |
| OCCSCc1ccc(CSCCO)cc1 | 90 to 92 |
| COc1cccc(C2=C(CC(C)=O)C(=O)NCCC2)c1 | 140 to 142 |
| Cc1cc(C)nc(NC(=O)NS(=O)(=O)C2CCCCCCCCCCC2Cl)n1 (stereo not drawn) | 84 |
| C1=C(c2cccs2)NN=C(c2cccs2)C1c1cccs1 (stereo not drawn) | 168 |
| CCCCCCCCCCCC(=O)OCn1cc(F)c(=O)[nH]c1=O | 114 |
| CSc1nc2ccccc2n1C1CCNCC1 | 114 to 115 |
| CNC(=O)C(=NOC)c1cccc(Cl)c1COc1ccc(Sc2ccc(Cl)cc2)cn1 | 116 to 118 |
| COc1ccccc1NC(=O)Nc1nc(Nc2ccccc2-c2ccccc2)nc(N(CCC(=O)O)Cc2ccc(-c3ccccc3)cc2)n1 | 144 to 147 |
| O=[N+]([O-])c1ccc(NS(=O)(=O)c2ccccc2)cc1 | 137 |
| O=C(Cc1c2c(nn1-c1ccccc1)c(=O)[nH]c1ccccc12)N1CCN(Cc2ccccc2)CC1 | 283 to 285 |
| CCn1ccc(=O)c2cnc(-c3ccc(O)cc3)nc21 | 320 to 324 |

| SMILES | melting point [°C] |
| --- | --- |
| COC1CC2C3CCC4=CC(=O)CCC4(C)C3(F)C(O)CC2(C)C1(OC(C)=O)C(=O)CCl (stereo not drawn) | 243 to 245 |
| COCCNC(=O)c1nc(C)c2cc(Cc3ccc(F)cc3)cnc2c1OCc1ccccc1 | 167 to 168 |
| COc1cccc(-c2c(F)c(F)c(N)c(F)c2F)c1 | 94 to 96 |
| CC(=O)NCC1CC1c1cccn2nc(C)nc12 (stereo not drawn) | 116 to 118 |
| COC(=O)CCCCNC(=O)c1sc2ccc(OC)cc2c1OC(C)C | 82 to 84 |
| COc1cc(C(=O)O)ccc1Cc1cccc2ccc(CCCC(=O)N3CCOCC3)cc12 | 160 to 161 |
| COc1cc(CCCC2OC(=O)NC2=O)ccc1O (stereo not drawn) | 147 to 148 |
| CCN(CC)c1ccc2nc3c4ccccc4c(=Nc4cc(C)on4)cc-3oc2c1 | 195 to 196 |
| CC(C)Oc1cccc2c1C(=NNc1ccc(S(N)(=O)=O)cc1)C(=O)N2 | > 250 |
| COC(=O)Cc1c(-c2ccc3c(c2)OCO3)c2ccccc2n(Cc2ccccc2OC)c1=O | 71 to 72 |
| Cc1cc(-c2cc(C(F)F)n3ncc(C(=O)O)c3n2)ccc1C(F)(F)F | 217 |
| N#Cc1nn(-c2c(Cl)cc(C(F)(F)F)cc2Cl)cc1C1(C(F)(F)C(F)(F)C(F)(F)F)CC1 | 95 to 96 |
| CC(O)c1ncnc(N2CCN(S(=O)(=O)N(C)C)CC2)n1 (stereo not drawn) | 124 to 125 |
| O=C(O)CCCCc1ccn2cncc2c1 | 158 to 161 |
| COc1ccc(Cc2cnc(N)nc2N)c(OC)c1O | 246 to 248 |
| CC(=O)c1cc(O)c(C)c(C)c1O | 151 |
| CC(C=NO)n1nnc2ccc(Oc3cc(F)c(C(F)(F)F)c(Cl)c3)cc21 (stereo not drawn) | 148 to 151 |
| O=C(C=Cc1ccccc1-c1ccccc1)c1ccccc1 | 190 |
| CCC(C)(C)NCC(O)c1ccc(O)c(O)c1OC (stereo not drawn) | 172 to 174 |
| CCc1cc(C=CN2C(=O)c3ccccc3C2=O)c(=O)[nH]c1C | 296 to 298 |

| SMILES | melting point [°C] |
| --- | --- |
| CCOC(=O)Cn1c(C)c(-c2ccnc3cc(Cl)ccc23)c2cc(NC(C)=O)ccc21 | 281 to 284 |
| Nc1nc(N)c2nc(-c3cccc(O)c3)cnc2n1 | > 300 |
| Cc1ccc(C=CCC(CCC(=O)O)(C(=O)C=Cc2ccc(Cl)cc2)c2ccccc2)cc1 (stereo not drawn) | 170 to 180 |
| COC(=O)c1ccc(OC2=C3N=C4CCCCC4=C3C(Cc3ccc(OC)c(OC)c3)C=C2)o1 (stereo not drawn) | 100 to 101 |
| O=c1c2ccccc2nc(-c2cc(-c3ccc(Cl)cc3)c(N3CCOCC3)s2)n1-c1ccccc1 | 229 to 230 |
| Cc1ccc(S(=O)(=O)N2Cc3cnc(C)n3-c3ccc(Cl)cc3C2c2ccccc2F)cc1 (stereo not drawn) | 152 to 153 |
| CC/C(=C\C#N)c1ccc2c(c1)C(CC)(CC)OC(=O)N2 | 135 to 136 |
| COc1ccc(-c2coc3cc(O)ccc3c2=O)c(OC)c1 | 238 to 240 |
| CN1CCN(c2ccc([N+](=O)[O-])cc2C(F)(F)F)C1=O | 119 to 120 |
| CCOc1ccc(C2C(C(=O)c3ccc(C(C)C)cc3)=C(O)C(=O)N2c2ccc(C)nn2)cn1 (stereo not drawn) | 274 to 276 |
| COc1ccc2c(c1)c1c(n2C)CC(C(N)=O)C1 (stereo not drawn) | 178 to 180 |
| CC12CC(C)(C1)C(=O)N(C(C)(C)C)C2=O | 65 to 65.5 |
| CNS(=O)(=O)c1cc2c(cc1CC(=O)O)CCCC2 | 153 to 155 |
| OCc1cnoc1-c1ccc(-c2ccccc2)cc1 | 108 to 110 |
| O=C(N[C@H]1CC[C@H](CCN2CCC(c3cccc4c3CCO4)CC2)CC1)c1ccc(Cl)cc1 | 224 |
| CCCCCCCC(=O)c1cn(CCCC(=O)O)c2ccccc12 | 100 to 102 |
| COc1ccc2sc3ccccc3c2c1 | 54 to 55 |
| Cc1cc(Cc2cc3cc(C(F)(F)F)ccc3n2S(=O)(=O)c2cccc(C(C)(C)C)c2)c(F)cc1C(=O)O | 195 |

The remaining lines, values ahead:

| melting point [°C] | SMILES |
| --- | --- |
| 120 | CC(=O)OCC1OC(OC2OC(CO)C(O)C(O)C2O)C(OC(C)=O)C(OC(C)=O)C1OC(C)=O (stereo not drawn) |
| 75 to 76 | CC(C)(C)OC(=O)[C@H]1CCCN1CC(=O)N1CCC[C@@H]1C(=O)OC(C)(C)C |
| 190 to 191 | CSCC1Cn2cc(C(=O)NCc3ccc(Cl)cc3)c(=O)c3cc(CN4CCOCC4)cc(c32)O1 (stereo not drawn) |
| 65 to 67 | COC(=O)C[C@H]1C[C@@H](CCc2c(-c3ccc(F)cc3)c(-c3ccccc3)c(C(=O)NCc3ccccc3)n2C(C)C)OC(C)(C)O1 |
| 131 to 132 | O=C(N=C1CCCN1Cc1ccccc1)Nc1ccc(F)c(Cl)c1 |
| 284 to 286 | CC(C)(C)c1ccc(-c2nnc(-c3ccc(C(=O)O)cc3)o2)cc1 |
| 248 to 250 | COc1ccc2nc(Nc3ccc(F)cc3C)nc(N(C)c3ccccc3)c2c1 |
| 107 to 109 | CCCCC(C)C(=O)C=P(c1ccccc1)(c1ccccc1)c1ccccc1 (stereo not drawn) |
| 101 | COc1cc(C(=O)c2ccc(C(F)(F)F)cc2)ccc1OCc1ccccc1 |
| 172 to 174 | N#Cc1nn(-c2c(Cl)cc(SC(F)(F)F)cc2Cl)c(N)c1I |
| 226 to 228 | CN1c2ccccc2-c2nc3ccc(Cl)cc3c3cccc1c23 |
| 225 to 227 | CNC(=O)Nc1cc(-c2c(-c3ccc(F)c(C)c3)nc3cccnn23)ccn1 |
| 195 to 197 | Clc1cc2c(cc1Cl)Nc1cscc1CN2 |
| 121 to 122 | COc1ccc(C(=O)COC(=O)NC(C)C)cc1 |
| 223 to 224 | CSc1nccc(-c2c3cccnc3n3c(N)nccc23)n1 |
| 142 to 143 | Clc1cc(CCc2ccccn2)c2oc(-c3nccc4ccccc34)nc2c1 |
| 210 to 213 | CC1CCC2Oc3ccc(Cl)cc3C(=O)N2O1 (stereo not drawn) |
| 157 to 158 | CCOC(=O)c1c(CN(CC)CC)nc2cc(OC)c(OC)cc2c1-c1ccc(Cl)c(Cl)c1 |
| 82 to 82.5 | Cn1nc(N)nc1NCCCCOc1cccc(CN2CCCCC2)c1 |
| 67 to 69 | CCCCCc1ccc(OC(=O)Oc2ccc([N+](=O)[O-])cc2)cc1 |

| melting point [°C] | SMILES |
| --- | --- |
| 135 to 136 | CC1(C)CC(C)(c2ccc(Oc3ccc(N)cc3)cc2)c2cc(Oc3ccc(N)cc3)ccc21 (stereo not drawn) |
| 151 to 153 | N#CC1=C(Nc2ccc(F)cc2)c2ccccc2CC1 |
| 160 to 162 | CCOCc1nc2c(N)nc3ccccc3c2n1CCCCCC(=O)N1CCOCC1 |
| 97 to 99 | C[Si](Cn1ncnc1S)(c1ccc(F)cc1)c1ccc(F)cc1 |
| 220 to 223 | O=C(C=C(c1ccccc1)c1ccc(Cl)cc1)Nc1ccc(C(=O)O)cc1 |
| 81 to 84 | C[N+]([O-])=C(Cn1ccnc1)c1ccc(F)cc1 |
| 115 to 116 | O=C(O)C[C@@H]1Cc2cccc3c2[C@@H](CCC3)C1 (relative stereo) |
| 78 to 79 | CC/C=C/C(=O)NC(=O)OC(C)(C)C |
| 153 to 154 | COCCO[C@@H]1c2ccn3c(Br)c(C)nc3c2N[C@H](c2ccccc2)[C@H]1O |
| 207 to 208 | CCOCc1nc2c(N)nc3cc(OCc4cccc(C)c4)ccc3c2n1CC(C)C |
| 115 to 123 | Cc1ccc(S(=O)(=O)NC(=O)N2C(=O)CN2C(c2ccccc2)c2ccccc2)cc1 |
| 295 | Cn1nc2nc(-c3ccc(N)c(C#N)c3)cc(C(F)(F)F)c2c1-c1ccccc1 |
| 108 to 110 | CC(=O)OC1C(OC(=O)c2cccc([N+](=O)[O-])c2)C=C(C)C(=O)CC1(C)C (stereo not drawn) |
| 138 to 140 | O=C(C=Cc1ccc(N2CCOCC2)cc1)c1ccc2c(c1)CCCC2 |
| 88 to 91 | CC#CNC(=O)NC(=NC(=O)N(C)C)SC |
| 113 to 114 | COC(=O)Cc1ccc(OC(=S)N(C)C)cc1F |
| 127 to 129 | Cc1cc(CNc2cccc(C(=O)O)c2C(=O)O)oc1C |
| 144 to 146 | N#CC(Sc1ccc(Cl)cc1)=C1SCCN1c1ccccc1 |
| 80 | CC(C)c1ccc(N(Cc2ccc(F)cc2)C(=O)Nc2c(C(C)C)cccc2C(C)C)cc1 |
| < 30 | C#CCOCCCCCCCCCC(=O)O |
